Test results published in US20250145642A1, “BICYCLIC HETEROARENES AND METHODS OF THEIR USE” (Kineta, Inc., priority 2021, published 2025).

Target: full-length human PIKFYVE (N-terminal GST-fusion) (Homo sapiens (Human), UniProt Q9Y2I7, L932S/Q1183K/Q995L/S1033A/S696N/T998S)
Experiment: PIKfyve biochemical assay (ADP-Glo Kinase assay, Carna Biosciences)
Conditions: ADP-Glo, full-length human GST-PIKFYVE, 10 μM to 3 nM; read-out: hPIKfyve IC50
Description: (§1) PIKfyve Biochemical Assay. The biochemical PIKfyve inhibition assays were run by Carna Biosciences according to proprietary methodology based on the Promega ADP-Glo™ Kinase assay. A full-length human PIKFYVE [1-2098(end) amino acids and S696N, L932S, Q995L, T998S, S1033A and Q1183K of the protein having the sequence set forth in NCBI Reference Sequence No. NP_055855.2] was expressed as N-terminal GST-fusion protein (265 kDa) using baculovirus expression system. GST-PIKFYVE was purified by using glutathione sepharose chromatography and used in an ADP-Glo™ Kinase assay (Promega). Reactions were set up by adding the test compound solution, substrate solution, ATP solution and kinase solution, each at 4× final concentrations. Reactions were prepared with assay buffer (50 mM MOPS, 1 mM DTT, pH7.2), mixed, and incubated in black 384 well polystyrene plates for 1 hour at room temperature. ADP-Glo™ reagent was then added for 40 minutes, followed by kinase detection reagent for an additional 40 minutes. The kinase activity was evaluated by detecting relative light units on a luminescence plate reader. Samples were run in duplicate from 10 μM to 3 nM. […] IC50 values were calculated from concentration vs % inhibition curves by fitting to a four-parameter logistic curve.
as §1, with “The” for “PIKfyve Biochemical Assay. The”, “accession number” for “the protein having the sequence set forth in NCBI Reference Sequence No.”, “curve. […]” for “curve.”

full-length human PIKFYVE (N-terminal GST-fusion), sequence (Q9Y2I7 whole entry S696N/L932S/Q995L/T998S/S1033A/Q1183K, the tested form may be a part): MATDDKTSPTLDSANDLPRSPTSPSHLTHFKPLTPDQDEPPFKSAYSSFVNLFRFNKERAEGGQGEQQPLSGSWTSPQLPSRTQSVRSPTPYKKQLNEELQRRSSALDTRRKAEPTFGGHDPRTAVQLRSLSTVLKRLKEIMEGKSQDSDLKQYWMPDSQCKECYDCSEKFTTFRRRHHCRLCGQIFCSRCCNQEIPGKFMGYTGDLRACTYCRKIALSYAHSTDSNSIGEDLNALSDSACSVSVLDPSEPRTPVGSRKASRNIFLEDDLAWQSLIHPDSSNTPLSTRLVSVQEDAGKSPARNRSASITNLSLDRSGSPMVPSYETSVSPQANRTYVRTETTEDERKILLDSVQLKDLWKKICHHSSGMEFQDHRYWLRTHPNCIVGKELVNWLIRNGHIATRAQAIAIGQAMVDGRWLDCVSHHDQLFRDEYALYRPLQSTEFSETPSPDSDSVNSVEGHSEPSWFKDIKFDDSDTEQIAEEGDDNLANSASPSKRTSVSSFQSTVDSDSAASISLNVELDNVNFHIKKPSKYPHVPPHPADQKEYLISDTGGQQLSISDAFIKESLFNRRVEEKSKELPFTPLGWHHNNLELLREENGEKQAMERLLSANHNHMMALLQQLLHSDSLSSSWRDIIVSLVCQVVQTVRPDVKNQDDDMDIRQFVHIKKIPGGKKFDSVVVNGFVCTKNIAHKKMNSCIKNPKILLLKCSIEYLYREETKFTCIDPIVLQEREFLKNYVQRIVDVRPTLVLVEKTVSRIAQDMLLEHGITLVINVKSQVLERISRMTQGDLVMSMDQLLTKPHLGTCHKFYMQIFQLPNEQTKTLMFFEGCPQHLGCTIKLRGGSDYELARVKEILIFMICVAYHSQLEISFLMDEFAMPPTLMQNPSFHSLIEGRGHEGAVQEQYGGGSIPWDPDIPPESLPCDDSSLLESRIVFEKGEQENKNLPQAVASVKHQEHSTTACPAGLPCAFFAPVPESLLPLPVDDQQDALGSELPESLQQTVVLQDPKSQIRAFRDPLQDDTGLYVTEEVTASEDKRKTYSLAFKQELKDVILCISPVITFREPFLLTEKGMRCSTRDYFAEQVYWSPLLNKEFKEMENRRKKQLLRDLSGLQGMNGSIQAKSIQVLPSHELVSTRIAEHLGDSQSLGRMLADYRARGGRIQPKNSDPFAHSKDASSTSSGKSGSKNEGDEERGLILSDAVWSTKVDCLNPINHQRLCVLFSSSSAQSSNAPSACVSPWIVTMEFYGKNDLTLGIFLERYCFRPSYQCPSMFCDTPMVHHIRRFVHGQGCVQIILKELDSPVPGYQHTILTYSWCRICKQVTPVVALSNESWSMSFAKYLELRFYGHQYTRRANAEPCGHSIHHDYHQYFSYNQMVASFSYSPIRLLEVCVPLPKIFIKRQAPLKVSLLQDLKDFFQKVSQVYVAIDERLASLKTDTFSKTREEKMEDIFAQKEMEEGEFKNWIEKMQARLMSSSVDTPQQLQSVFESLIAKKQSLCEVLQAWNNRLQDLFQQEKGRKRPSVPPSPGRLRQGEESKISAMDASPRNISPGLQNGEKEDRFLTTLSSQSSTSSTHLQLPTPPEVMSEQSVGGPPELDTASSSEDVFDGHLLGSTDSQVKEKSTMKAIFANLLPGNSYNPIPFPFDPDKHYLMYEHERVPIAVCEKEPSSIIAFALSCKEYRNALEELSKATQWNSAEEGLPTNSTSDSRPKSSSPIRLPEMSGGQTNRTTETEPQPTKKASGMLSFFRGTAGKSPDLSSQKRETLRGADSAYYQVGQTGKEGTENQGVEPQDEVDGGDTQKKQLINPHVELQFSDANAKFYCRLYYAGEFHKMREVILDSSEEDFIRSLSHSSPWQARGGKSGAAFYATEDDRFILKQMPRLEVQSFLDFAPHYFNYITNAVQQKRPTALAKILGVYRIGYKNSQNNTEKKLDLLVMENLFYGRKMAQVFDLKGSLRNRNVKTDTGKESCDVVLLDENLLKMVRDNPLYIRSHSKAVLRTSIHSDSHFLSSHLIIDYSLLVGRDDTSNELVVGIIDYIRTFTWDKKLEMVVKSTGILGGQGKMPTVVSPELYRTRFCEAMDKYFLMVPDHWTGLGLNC

Compound | IC50 [nM]
c1ccc(N2CCc3c(-c4ccncc4)nc(N4CCOCC4)nc32)cc1 [Compound 92, 4-(7-phenyl-4-(pyridin-4-yl)-6,7-dihydro-5H-pyrrolo[2,3-d]pyrimidin-2-yl)morpholine] | 10 to 100
c1ccc(N2CCc3c(Nc4cccnc4)nc(N4CCOCC4)nc32)cc1 [Compound 77] | 10 to 100
c1ccc(N2CCc3c(C4CNC4)nc(N4CCOCC4)nc32)cc1 [Compound 115, 4-(4-(azetidin-3-yl)-7-phenyl-6,7-dihydro-5H-pyrrolo[2,3-d]pyrimidin-2-yl)morpholine] | 100 to 1000
CN1CCCC(COc2nc(N3CCOCC3)nc3c2CCN3c2ccccc2)C1 (centres unmarked) [Compound 28, 4-(4-((1-methylpiperidin-3-yl)methoxy)-7-phenyl-6,7-dihydro-5H-pyrrolo[2,3-d]pyrimidin-2-yl)morpholine.formate] | 100 to 1000
c1cncc(-c2nc(N3CCOCC3)nc3c2CCN3c2cccnc2)c1 [Compound 106, 4-(4,7-di(pyridin-3-yl)-6,7-dihydro-5H-pyrrolo[2,3-d]pyrimidin-2-yl)morpholine] | 10 to 100
c1ccc(-c2c[nH]c3c(-c4ccncc4)nc(N4CCOCC4)nc23)nc1 [Compound 136, 4-(7-(pyridin-2-yl)-4-(pyridin-4-yl)-6H-pyrrolo[3,2-d]pyrimidin-2-yl)morpholine] | 10 to 100
c1cc(-c2nc(N3CCOCC3)nc3c2CCN3C2CCOCC2)ccn1 [Compound 95, 4-(4-(pyridin-4-yl)-7-(tetrahydro-2H-pyran-4-yl)-6,7-dihydro-5H-pyrrolo[2,3-d]pyrimidin-2-yl)morpholine] | 100 to 1000
c1cncc(-c2nc(N3CCOCC3)nc3c2CCN3c2ccc3c(c2)OCCO3)c1 [Compound 103, 4-(7-(2,3-dihydrobenzo[b][1,4]dioxin-6-yl)-4-(pyridin-3-yl)-6,7-dihydro-5H-pyrrolo[2,3-d]pyrimidin-2-yl)morpholine] | < 10
CC(=O)N1CCC(c2nc(N3CCOCC3)nc3c2CCN3c2ccccc2)C1 (centres unmarked) [Compound 119, 1-(3-(2-morpholino-7-phenyl-6,7-dihydro-5H-pyrrolo[2,3-d]pyrimidin-4-yl)pyrrolidin-1-yl)ethanone] | 10 to 100
c1ccc(N2CCc3c(COCc4ccccn4)nc(N4CCOCC4)nc32)cc1 [Compound 62, 4-(7-phenyl-4-((pyridin-2-ylmethoxy)methyl)-6,7-dihydro-5H-pyrrolo[2,3-d]pyrimidin-2-yl)morpholine] | 10 to 100
OCC(O)COc1nc(N2CCOCC2)nc2c1CCN2c1ccccc1 (centres unmarked) [Compound 43, 3-((2-morpholino-7-phenyl-6,7-dihydro-6H-pyrrolo[2,3-d]pyrimidin-4-yl)oxy)propane-1,2-diol] | 100 to 1000
c1ccc(-c2nccc(N3CCc4c(Oc5cccnc5)nc(N5CCOCC5)nc43)n2)cc1 [Compound 74, 4-(7-(2-phenylpyrimidin-4-yl)-4-(pyridin-3-yloxy)-6,7-dihydro-5H-pyrrolo[2,3-d]pyrimidin-2-yl)morpholine] | 1000 to 10000
c1cncc(N2CCc3c(C4CCNCC4)nc(N4CCOCC4)nc32)c1 [Compound 108, 4-(4-(piperidin-4-yl)-7-(pyridin-3-yl)-6,7-dihydro-5H-pyrrolo[2,3-d]pyrimidin-2-yl)morpholine] | 1000 to 10000
N#Cc1cccc(N2CCc3c(OCc4cccnc4)nc(N4CCOCC4)nc32)c1 [Compound 4, 3-(2-morpholino-4-(pyridin-3-ylmethoxy)-5H-pyrrolo[2,3-d]pyrimidin-7(6H)-yl)benzonitrile] | 100 to 1000
CN1CCCC(COc2nc(N3CCOCC3)nc3c2CCN3CC(C)(C)O)C1 (centres unmarked) [Compound 40, 2-methyl-1-(4-((1-methylpiperidin-3-yl)methoxy)-2-morpholino-6H-pyrrolo[2,3-d]pyrimidin-7(6H)-yl)propan-2-ol] | > 10000
c1ccc(-c2cncc(N3CCc4c(Oc5cccnc5)nc(N5CCOCC5)nc43)c2)cc1 [Compound 67, 4-(7-(5-phenylpyridin-3-yl)-4-(pyridin-3-yloxy)-6,7-dihydro-5H-pyrrolo[2,3-d]pyrimidin-2-yl)morpholine] | 10 to 100

Compound | IC50 [nM]
CN1CC(c2nc(N3CCOCC3)nc3c2CCN3c2ccccc2)C1 [Compound 117, 4-(4-(1-methylazetidin-3-yl)-7-phenyl-6,7-dihydro-5H-pyrrolo[2,3-d]pyrimidin-2-yl)morpholine] | 100 to 1000
CN1CCC(c2nc(N3CCOCC3)nc3c2CCN3c2cccnc2)CC1 [Compound 109, 4-(4-(1-methylpiperidin-4-yl)-7-(pyridin-3-yl)-6,7-dihydro-5H-pyrrolo[2,3-d]pyrimidin-2-yl)morpholine] | 1000 to 10000
CC(C)(C)OC(=O)N1CCC(COc2nc(N3CCOCC3)nc3c2CCN3c2cccnc2)C1 (centres unmarked) [Compound 33, tert-butyl 3-(((2-morpholino-7-(pyridin-3-yl)-6,7-dihydro-4H-pyrrolo[2,3-d]pyrimidin-4-yl)oxy)methyl)pyrrolidine-1-carboxylate] | 100 to 1000
c1cncc(COc2nc(N3CCOCC3)nc3c2CCN3c2cccnc2)c1 [Compound 32, 4-(7-(pyridin-3-yl)-4-(pyridin-3-ylmethoxy)-6,7-dihydro-5H-pyrrolo[2,3-d]pyrimidin-2-yl)morpholine] | 100 to 1000
c1ccc(-n2cc(N3CCc4c(Oc5cccnc5)nc(N5CCOCC5)nc43)cn2)cc1 [Compound 71, 4-(7-(1-phenyl-1H-pyrazol-4-yl)-4-(pyridin-3-yloxy)-6,7-dihydro-5H-pyrrolo[2,3-d]pyrimidin-2-yl)morpholine] | 10 to 100
c1ccc(N2CCc3c(COc4cccnc4)nc(N4CCOCC4)nc32)cc1 [Compound 59, 4-(7-phenyl-4-((pyridin-3-yloxy)methyl)-6,7-dihydro-6H-pyrrolo[2,3-d]pyrimidin-2-yl)morpholine] | 100 to 1000
c1cncc(N2CCc3c(C4CCOC4)nc(N4CCOCC4)nc32)c1 (centres unmarked) [Compound 89, 4-(7-(pyridin-3-yl)-4-(tetrahydrofuran-3-yl)-6,7-dihydro-6H-pyrrolo[2,3-d]pyrimidin-2-yl)morpholine] | 100 to 1000
CN1CCCC(COc2nc(N3CCOCC3)nc3c2CCN3c2cnn(C)c2)C1 (centres unmarked) [Compound 18] | 1000 to 10000
COc1cccc(-c2nccc(-c3nc(N4CCOCC4)nc4c3CCN4c3cccnc3)n2)c1 [Compound 123, 4-(4-(2-(3-methoxyphenyl)pyrimidin-4-yl)-7-(pyridin-3-yl)-6,7-dihydro-5H-pyrrolo[2,3-d]pyrimidin-2-yl)morpholine] | 100 to 1000
c1cc(-c2nc(N3CCOCC3)nc3c(-c4cnn(C5CC5)c4)c[nH]c23)ccn1 [Compound 140, 4-(7-(1-cyclopropyl-1H-pyrazol-4-yl)-4-(pyridin-4-yl)-5H-pyrrolo[3,2-d]pyrimidin-2-yl)morpholine] | 10 to 100
COc1cccc(N2CCc3c(OCC4CCCN(C)C4)nc(N4CCOCC4)nc32)c1 (centres unmarked) [Compound 13, 4-(7-(3-methoxyphenyl)-4-((1-methylpiperidin-3-yl)methoxy)-6,7-dihydro-5H-pyrrolo[2,3-d]pyrimidin-2-yl)morpholine] | 10 to 100
CC(=O)N1CCC(COc2nc(N3CCOCC3)nc3c2CCN3c2cccnc2)C1 (centres unmarked) [Compound 36, 1-(3-(((2-morpholino-7-(pyridin-3-yl)-6,7-dihydro-5H-pyrrolo[2,3-d]pyrimidin-4-yl)oxy)methyl)pyrrolidin-1-yl)ethan-1-one] | 100 to 1000
c1cc(-c2c[nH]c3c(OCc4cccnn4)nc(N4CCOCC4)nc23)cc(-n2cccn2)c1 [Compound 150, 4-(7-(3-(1H-pyrazol-1-yl)phenyl)-4-(pyridazin-3-ylmethoxy)-6H-pyrrolo[3,2-d]pyrimidin-2-yl)morpholine] | 10 to 100
c1ccc(N2CCc3c(OCc4cccnn4)nc(N4CCOCC4)nc32)cc1 [Compound 27, 4-(7-phenyl-4-(pyridazin-3-ylmethoxy)-6,7-dihydro-5H-pyrrolo[2,3-d]pyrimidin-2-yl)morpholine] | 10 to 100
c1ccc(N2CCc3c(Oc4ccccn4)nc(N4CCOCC4)nc32)cc1 [Compound 49, 4-(7-phenyl-4-(pyridin-2-yloxy)-6,7-dihydro-5H-pyrrolo[2,3-d]pyrimidin-2-yl)morpholine] | 10 to 100
c1cncc(N2CCc3c(C4CCCNC4)nc(N4CCOCC4)nc32)c1 (centres unmarked) [Compound 114, 4-(4-(piperidin-3-yl)-7-(pyridin-3-yl)-6,7-dihydro-5H-pyrrolo[2,3-d]pyrimidin-2-yl)morpholine] | 1000 to 10000
